Measured values: patent US20200290950A1, “ALKAMIDE COMPOUNDS AND USES THEREOF” (NORTH CAROLINA STATE UNIVERSITY, priority 2017, published 2020)

Legend:
RBL-2H3 cells [1] = assay: TNF-α ELISA, 18 hrs (Example 3); type: cell-based, rat; settings: 1 μM A23187, 18 hours
Procedure: FIGS. 25A-25B. […] RBL-2H3 cells were plated overnight and stimulated with 1 μM A23187 in the absence or presence of each alkamide for 18 h. Culture supernatants were analyzed for TNF-α levels by ELISA and experiments were performed in triplicate (FIG. 25A). Percent inhibition of TNF-α secretion for each alkamide listed in FIG. 25B. *P<0.05, **P<0.01, ***P<0.001, one-way ANOVA with Dunnett's post hoc test compared to vehicle (FIG. 25A) or A15 (FIG. 25B).
RBL-2H3 cells (1.0×10^5 cells) were incubated overnight in a 24 well plate at 37° C. with 5% CO2. Cells were washed with 1×PBS and stimulated with 1 μM A23187 for 18 hrs in the absence or presence of each compound. The cells were centrifuged (1200×g, 5 min) and the supernatants were collected. The concentration of TNF-α in the supernatants were determined using the TNF-α ELISA kit.

RBL-2H3 cells [2] = assay: LDH cytotoxicity assay; type: cell-based, rat; settings: overnight treatment
Procedure: FIG. 7. A15 is not cytotoxic to RBL-2H3 cells. RBL-2H3 cells were plated and incubated overnight prior to stimulation. Cells were treated overnight with the indicated concentrations of A15 10 μg/mL cycloheximide as a positive control. Supernatants were collected and analyzed for LDH release using the Pierce LDH Cytotoxicity Kit. […] Statistical analysis was performed using a one-way ANOVA with Dunnett's post-hoc test, ***p<0.001.
RBL-2H3 cells were seeded into 96-well plates and incubated overnight prior to treatment with a range of A15 concentrations or 10 μg/mL cycloheximide. Supernatants were collected after 18 hr and analyzed for lactate dehydrogenase (LDH) activity using the commercially available Pierce LDH Cytotoxicity Assay Kit according to the manufacturer's instructions (Thermo Fisher Scientific). Briefly, in a 96-well plate, 50 μL of supernatant were incubated with 50 μL of reaction mixture containing a tetrazolium salt that is reduced to formazan in the presence LDH for 30 min protected from light. 50 μL of stop solution was added, and the absorbance was read at 490 nm with absorbance at 690 nm subtracted to remove background absorbance. LDH release from vehicle treated cells was used to determine spontaneous LDH release. Additionally, lysis buffer was used to determine maximum LDH release.

[3] = target: cannabinoid type 2 receptor (CB2) (Homo sapiens, UniProt P34972); settings: Raduner et al., 2006; cited from earlier work
TDI-induced ear swelling = type: in vivo, mouse
Description: Several different model systems were utilized for these experiments. In one model, dorsal root ganglia were obtained from mice and the neurons cultured in vitro. The neurons were then stimulated in the presence/absence of A15 and YM8-85 and the calcium responses monitored by fluorescence microscopy. In the second model, the alkamides were applied to mouse skin in mineral oil. The reactions of these mice to heat, cold, and tactile stimulation was then compared with mice that had not received treatment with A15. In a third model, mice were sensitized to the chemical compound toluene-2,4-diisocyanate (TDI). TDI is an industrial chemical which causes hypersensitive skin lesions and itching in exposed humans and animals. The physiological response to TDI is complex involving type 2 T lymphocytes, cytokines, mast cells, and neurons. Alkamides were applied to sensitized animals and then ear swelling and bouts of scratching were monitored.
A15 and TDI induced hypersensitivity. Mice were sensitized to toluene-2,4-diisocyanate (TDI) via abdominal application. Subsequently, a hypersensitive response was induced in the ear by direct application of TDI and ear thickness measured as a sign of inflammation.

RBL-2H3 cells [4] = assay: Calcium assay, Fluo-4 (Example 3); type: cell-based, rat
Procedure: FIGS. 22A-22D. The alkamide fatty acid is necessary for inhibition of calcium influx. RBL-2H3 cells were plated overnight, incubated with Fluo-4 AM for 1 h, stimulated by 1 μM A23187 (FIG. 22A) or 5 ng/mL DNP-BSA (FIG. 22B) in the absence or presence of each alkamide, and fluorescence was read for 2 mins every 5 secs. Data are presented as the mean change in RFU of 4 experiments. Percent inhibition of calcium influx was calculated for A23187 (FIG. 22C) and DNP-BSA (FIG. 22D) stimulated cells at 2 mins. *P<0.05, **P<0.01, and ***P<0.001 one-way ANOVA with Dunnett's post hoc test compared to A15.
RBL-2H3 cells (1.0×10^5 cells) were incubated overnight in a 96 well black-wall clear bottom plate with or without IgE-DNP (0.1 μg/mL) at 37° C. with 5% CO2. The assay was performed using the Fluo-4 Direct™ Calcium Assay Kit according to the manufacturer's instruction. Briefly, cells were incubated with the Fluo-4 Direct calcium reagent loading solution for 30 minutes at 37° C. with 5% CO2 then 30 mins at room temperature. Prior to stimulation, the well baseline fluorescence was measured every 5 seconds over 1 minute using a BioTek Synergy HT microplate reader with 485/20 nm excitation and 528/20 nm emission filters. Cells were stimulated with 1 μM A23187 or 5 ng/mL DNP (IgE-DNP) in the absence or presence of each compound, and the fluorescence was measured every 5 seconds over 2 minutes. The change in fluorescence (ΔRT) was calculated as the sample fluorescence minus the baseline fluorescence for each well.

Chain of cannabinoid type 2 receptor (CB2) (P34972 whole entry, species assumed): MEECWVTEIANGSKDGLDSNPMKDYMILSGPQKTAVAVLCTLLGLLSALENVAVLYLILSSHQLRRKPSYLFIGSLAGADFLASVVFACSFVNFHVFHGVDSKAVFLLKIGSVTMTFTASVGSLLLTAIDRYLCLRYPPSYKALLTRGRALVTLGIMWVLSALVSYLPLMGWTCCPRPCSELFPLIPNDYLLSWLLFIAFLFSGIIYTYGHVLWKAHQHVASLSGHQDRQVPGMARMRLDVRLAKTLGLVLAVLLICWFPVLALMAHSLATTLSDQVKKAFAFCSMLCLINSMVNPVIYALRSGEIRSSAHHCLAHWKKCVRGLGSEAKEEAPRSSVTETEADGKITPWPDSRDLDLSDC

## CCCCCCC/C=C/C=C/C(=O)NCC(C)C [A15, (2E,4E)-N-Isobutyldodeca-2,4-dienamide]
RBL-2H3 cells [1]
  percent inhibition of TNF-α secretion: 79%
RBL-2H3 cells [2]
  cytotoxic activity (LDH release): no significant cytotoxic activity
[3]
  binding to CB2: shown to bind
TDI-induced ear swelling; 0.1%, first experiment (FIG. 13A)
  TDI ear swelling (ear thickness): significant inhibitory effect
TDI-induced ear swelling; 0.1%, repeated experiment (FIG. 13B)
  TDI ear swelling (ear thickness): neither A15 nor YM8-85 at 0.1% produced significant inhibition
TDI-induced ear swelling; 1%, first experiment (FIG. 13A)
  TDI ear swelling (ear thickness): significant responses were not seen
RBL-2H3 cells [4]; 5 ng/mL DNP-BSA, at 2 minutes
  percent inhibition of calcium influx: 66%
RBL-2H3 cells [4]; 1 μM A23187, at 2 minutes
  percent inhibition of calcium influx: 76%
